Measured values as given in patent publication US11351178B2, “Selective HDAC6 inhibitors” (ITALFARMACO S.P.A., priority 2017, dated 2022).

Experiments:
[1] = tested on: H3 histone acetylation in 697 cell line; experiment: In vitro H3 histone acetylation in 697 cell line; format: cell-based
Procedure: (§1) The in vitro α-tubulin and H3 histone acetylation determination was evaluated on B 697 […] cell line.
(§2) The test molecules were diluted from 20 mM stock solution in DMSO with RPMI 10% FCS+0.01% DMSO medium at 20× concentration compared to the final concentration, added to the cells (15×10^6 cells in a total volume of 30 ml in RPMI medium 10% FCS+0.01% DMSO) to obtain the final concentrations of 1000, 333, 111 and 37 nM and incubated at 37° C., 5% CO2 for 16 hours.
The remaining cells (10×10^6) were treated by acid extraction of histones (Kazuhiro et al., PNAS (2002), 99 (13) 8921-8926). Cells were centrifuged 5 min at 1100 rpm at 4° C. and washed once in 0.9% NaCl. The resulting pellet was lysed with […] (10 mM Tris.HCl, pH 6.5/50 mM sodium bisulphite, 1% Triton X-100/10 mM MgCl2/8.6% saccharose containing the protease inhibitor mixture (Roche)) for 20 min at 4° C. The resulting nucleus pellet was repeatedly washed in buffer until supernatant clarification (centrifuged at 7,500×g, 5 minutes after each wash) and finally washed in nucleus buffer (10 mM Tris.HCl/13 mm EDTA, pH 7, 4) and resuspended in 250 μl of 0.2 M HCl/H2SO4. Histone proteins were extracted in an acidic environment by incubating overnight at 4° C. under gentle shaking. After centrifugation at 14,000 rpm at 4° C. for 10 minutes, 1250 μl of cold acetone was added to the supernatant and incubated overnight at −20° C., resulting in the precipitation of histone proteins. The pellet obtained after centrifugation for 10 minutes at 14000 rpm and 4° C. was washed with cold acetone, evaporated to dryness and resuspended in 50 μl distilled water. The protein content determination of both total and histone extracts was carried out by a colorimetric assay using a BCA Protein Assay Kit (Pierce cat: 23227).
H3 histone acetylation and total H3 amount were quantified by commercial ELISA assays PathScan acetylated histone H3 Sandwich Elisa kit, cat #7232C and PathScan total histone H3 Sandwich Elisa Kit, cat #7253C Cell Signaling) according to supplier reported method and by detecting absorbance at 450 nm wavelength using Multiskan Spectrum. ELISA tests were performed by analysing 0.250 μg and 0.500 μg of histone extract of each sample. The degree of acetylation was calculated by dividing H3 histone absorbance by histone total absorbance.
(§3) Test results of tubulin and H3 histone acetylation, expressed as fold increase of ratio of acetylated α-tubulin/total α-tubulin and H3Ac/H3Tot, respectively, of each sample relative to the control sample (untreated) are summarized in Tables 6 and 6′.

[2] = tested on: α-tubulin acetylation in 697 cell line; experiment: In vitro α-tubulin acetylation in 697 cell line; format: cell-based
Procedure: as §1, §2
At the end of the incubation period, 5×10^6 cells were taken from each sample, centrifuged for 5 minutes at 1100 rpm and washed in 0.9% NaCl at 4° C. The resulting pellet was lysed by treating at 4° C. for 30 minutes with 150 μl of Complete Lysis-M (Roche, cat-04719956051) containing protease inhibitors and phosphatase (Complete Easy Pack proteinase inhibitor cocktail tablets cat: 04693116001, Phostop easypack phosphatase inhibitor cocktails, cat: 01906837001—Roche), then centrifuged 10 minutes at 14,000 rpm (20817×g). 0.150 μg of supernatant (total protein extract) were diluted in 100 μl of 1×PBS and immobilized in Maxisorp F96 NUN-IMMUNO Plate (Nunc cat #5442404) at room temperature overnight. Plates were washed twice with Wash Buffer (PBS1X+0.005% tween 20) and saturated for 1 hour at room temperature with 300 μL of 1×PBS containing 10 FCS. After washing with buffer (1×PBS containing 0.005% tween), the plates were incubated for two hours at room temperature in the presence of anti-acetylated-α-tubulin antibody (Monoclonal Anti-acetylated-tubulin clone 6-11B-1, mouse ascites fluid, cat #T6793 Sigma, 100 μl diluted 1:1000 in 1×PBS containing 10% FCS) or with total anti-α-tubulin antibody (Monoclonal Anti alpha-tubulin produced in mouse, cat #T6074 Sigma). After washing, 100 μl per well of TMB substrate kit was added for 10 minutes at room temperature in the dark. The reaction was stopped by adding 50 μl of 2N H2SO4. The plates were read at Multiskan Spectrum spectrophotometer at a wavelength of 450 nm.
The degree of acetylation was calculated by dividing the absorbance obtained for acetylated α-tubulin by the absorbance of total α-tubulin.
as §3

[3] = format: in vivo; conditions: mouse, Day 12, 100 mg/Kg ip
Procedure: Following chronic intraperitoneal administration in C57BL/6 mice, compounds MTD was estimated by clinical (body weight and behaviour) and blood (white blood cells and platelets) parameters evaluation. The compounds were administered after dissolution in a H2O/PEG400 mixture in ratio 1:1 w/w containing 5% DMSO (for compound 17, 20% DMSO was used).
All animals were weighed the day before the treatment (day 0) and the average body weight was determined.
Animals (8 animals per group) were treated once a day starting from Day 1 during 5 consecutive days per week with: • a) the compounds at doses of 10, 30, 50 mg/kg ip, • b) Givinostat at 100 mg/kg (internal control) and • c) the vehicle solutions used for solubilizing the substances.
The volume of the solutions administered was 10 mL/Kg. The treatment was repeated for 2 weeks, for a total of 10 treatments/group.
On a daily basis any clinical sign (skin appearance, mobility and animal reactivity, respiration, etc.) indicating a possible toxicity of the compounds has been reported. The animal weight was evaluated on days 2, 4, 9 and 11.
On Day 1, 3, 5, 8, 10 and 12, blood sample (about 50 μL) were taken from the tail of the animal to evaluate the effect of the substances on blood parameters. Withdrawals were performed on 4 animals per group on alternate days.
Samples were harvested in tubes containing EDTA, appropriately diluted in physiological solution and analysed with a cell counter.
At the end of the study (day 12) the animals were sacrificed 60 minutes after the last treatment. Gross necropsy evaluation was performed to detect any internal organ abnormalities. Table 8 summarizes the data obtained in MTD determination experiments for some of the compounds according to the invention. Givinostat is a HDAC pan inhibitor and was used as a reference. The tested molecules are well tolerated.

Question: What does the source list for CCN(CC)Cc1ccc2cc(COC(=O)Nc3ccc(C(=O)NO)cc3)ccc2c1 [Givinostat, reference compound]?
Answer: H3 histone acetylation (in words) [1]: good acetylation of both tubulin and H3 histone; fold induction at 0.111 µM ([1]; 16 h, conc 111 nM, read-out: Acetylation of H3 histone (fold increase of acetylated H3/total H3 towards control)): 8; fold induction at 0.333 µM ([1]; 16 h, conc 333 nM, read-out: Acetylation of H3 histone (fold increase of acetylated H3/total H3 towards control)): 17; fold induction at 1 µM ([1]; 16 h, conc 1000 nM, read-out: Acetylation of H3 histone (fold increase of acetylated H3/total H3 towards control)): 23; tubulin acetylation (in words) [2]: good acetylation of both tubulin and H3 histone; fold induction at 0.037 µM ([2]; Conc 37 nM, 16 hours, read-out: Tubulin acetylation (ratio of acetylated tubulin and total tubulin towards control)): 1; fold induction at 0.111 µM ([2]; Conc 111 nM, 16 hours, read-out: Tubulin acetylation (ratio of acetylated tubulin and total tubulin towards control)): 4; fold induction at 0.333 µM ([2]; Conc 333 nM, 16 hours, read-out: Tubulin acetylation (ratio of acetylated tubulin and total tubulin towards control)): 12; fold induction at 1 µM ([2]; Conc 1000 nM, 16 hours, read-out: Tubulin acetylation (ratio of acetylated tubulin and total tubulin towards control)): 18; Body weight % vs control [3]: 0.9%; Platelet % vs control [3]: −7%; White blood cells % vs control [3]: −72%
